According to US10800782B2, “Inhibitors of cellular metabolic processes” (Agios Pharmaceuticals, Inc., priority 2016, dated 2020):

These molecules were tested against T1, MAT2A (Homo sapiens, UniProt P31153) (assay: MAT2A biochemical assay (colorimetric inorganic phosphate detection, PiColorLock)). Conditions: recombinant His6-tagged MAT2A 1 μg/ml; 60 minutes preincubation at 25° C.; L-Met 80 μM, ATP 100 μM; 60 minutes reaction; read at 623 nm; read-out: MAT2A Inhibition Score.
T1 construct: His6; made in house; host or cells: SF9 insect cells
Protocol: In the reaction catalyzed by MAT2A enzyme, L-Met and ATP were converted to SAM, inorganic phosphate, and inorganic diphosphate. […] The concentration of malachite green phosphomolybdate produced in the detection reaction is thus directly related to the quantity of product produced by the MAT2A enzyme. Multiple commercial kits exist for this method of phosphate detection and quantification, such as PiColorLock Gold (Innova Biosciences). Typical reaction was performed in 50 μl final volume, containing buffer (Tris, pH 8.0, 50 mM KCl, 15 mM MgCl2, 300 uM EDTA, bovine serum albumin at 0.005% w/v) and 1 μg/ml MAT2A. Compounds were added in 1 μl of DMSO at the desired concentration; a typical dose response curve contained ten points with three-fold dilution between compound concentrations. […] The reaction was allowed to proceed for 60 minutes at room temperature then halted by the addition of 13 μl of PiColor Lock reagent. After a further 5 minutes of incubation at room temperature, […] of PiColor Stabilizer was added and the reactions were further incubated at 25° C. for 25 minutes. […] Recombinant MAT2A protein was expressed in SF9 insect cells and purified by metal chelate affinity chromatography, using methods well known in the art. After expression of His6-tagged MAT2A cells were disrupted by 4 passes through an M-Yl 10 Micro fluidizer (Microfluidics) set to 500 psi, and then centrifuged at 22,000 rcf for 20 min at 4° C. The supernatant was harvested and loaded at 15 cm/h on a Histrap FF 5*1 ml column (GE) which was equilibrated with 50 mM Tris, 500 mM NaCl, pH7.4. Host cell contaminants were removed by washing the column with equilibration buffer followed by equilibration buffer containing 20 mM imidazole and 60 mM imidazole to baseline. MAT2A protein was eluted by the addition of buffer containing 250 mM imidazole, dialized into 50 mM NaCl, 50 mM Tris, pH 7.4, flash frozen in liquid nitrogen, and stored at −80° C. until use.

T1 sequence (P31153 whole entry): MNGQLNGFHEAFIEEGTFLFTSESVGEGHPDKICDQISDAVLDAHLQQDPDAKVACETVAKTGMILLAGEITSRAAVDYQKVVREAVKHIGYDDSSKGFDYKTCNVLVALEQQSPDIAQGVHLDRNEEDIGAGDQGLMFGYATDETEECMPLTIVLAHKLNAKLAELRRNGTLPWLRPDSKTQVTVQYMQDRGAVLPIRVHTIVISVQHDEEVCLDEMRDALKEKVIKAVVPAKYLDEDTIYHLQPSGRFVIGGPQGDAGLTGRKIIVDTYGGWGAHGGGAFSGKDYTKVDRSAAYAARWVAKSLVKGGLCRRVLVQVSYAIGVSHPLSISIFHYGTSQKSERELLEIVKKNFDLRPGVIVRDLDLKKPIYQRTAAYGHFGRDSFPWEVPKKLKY

IC50, < 100 nM:
COc1ccc(-c2c(Nc3cnc(N)cn3)[nH]c3c(C4=CCCCC4)c(-c4ccccc4)nn3c2=O)cc1 [Compound 160, 5-((5-aminopyrazin-2-yl)amino)-3-(cyclohex-1-en-1-yl)-6-(4-methoxyphenyl)-2-phenylpyrazolo[1,5-a]pyrimidin-7(4H)-one]
COc1ccc(-c2c(Nc3nccnn3)[nH]c3c(C4=CCCCC4)c(-c4ccccc4)nn3c2=O)cc1 [Compound 161, 5-((1,2,4-triazin-3-yl)amino)-3-(cyclohex-1-en-1-yl)-6-(4-methoxyphenyl)-2-phenylpyrazolo[1,5-a]pyrimidin-7(4H)-one]
COc1ccc(-c2c(Nc3cnncn3)[nH]c3c(C4=CCCCC4)c(-c4ccccc4)nn3c2=O)cc1 [Compound 162, 5-((1,2,4-triazin-5-yl)amino)-3-(cyclohex-1-en-1-yl)-6-(4-methoxyphenyl)-2-phenylpyrazolo[1,5-a]pyrimidin-7(4H)-one]
COc1ccc(-c2c(Nc3ncncn3)[nH]c3c(C4=CCCCC4)c(-c4ccccc4)nn3c2=O)cc1 [Compound 163, 5-((1,3,5-triazin-2-yl)amino)-3-(cyclohex-1-en-1-yl)-6-(4-methoxyphenyl)-2-phenylpyrazolo[1,5-a]pyrimidin-7(4H)-one]
COc1ccc(-c2c(Nc3ncnc(N)n3)[nH]c3c(C4=CCCCC4)c(-c4ccccc4)nn3c2=O)cc1 [Compound 164, 5-((4-amino-1,3,5-triazin-2-yl)amino)-3-(cyclohex-1-en-1-yl)-6-(4-methoxyphenyl)-2-phenylpyrazolo[1,5-a]pyrimidin-7(4H)-one]
COc1ccc(-c2c(Nc3ccon3)[nH]c3c(C4=CCCCC4)c(-c4ccccc4)nn3c2=O)cc1 [Compound 165, 3-(cyclohex-1-en-1-yl)-5-(isoxazol-3-ylamino)-6-(4-methoxyphenyl)-2-phenylpyrazolo[1,5-a]pyrimidin-7(4H)-one]
COc1ccc(-c2c(Nc3ncns3)[nH]c3c(C4=CCCCC4)c(-c4ccccc4)nn3c2=O)cc1 [Compound 166, 5-((1,2,4-thiadiazol-5-yl)amino)-3-(cyclohex-1-en-1-yl)-6-(4-methoxyphenyl)-2-phenylpyrazolo[1,5-a]pyrimidin-7(4H)-one]
COc1ccc(-c2c(Nc3nncs3)[nH]c3c(C4=CCCCC4)c(-c4ccccc4)nn3c2=O)cc1 [Compound 167, 5-((1,3,4-thiadiazol-2-yl)amino)-3-(cyclohex-1-en-1-yl)-6-(4-methoxyphenyl)-2-phenylpyrazolo[1,5-a]pyrimidin-7(4H)-one]
O=c1c(-c2ccc3ncccc3c2)c(Nc2ccccn2)[nH]c2c(-c3ccccc3)c(-c3ccccc3)nn12 [Compound 168, 2,3-diphenyl-5-(pyridin-2-ylamino)-6-(quinolin-6-yl)pyrazolo[1,5-a]pyrimidin-7(4H)-one]
O=c1c(-c2ccc3ncccc3c2)c(Nc2ccncn2)[nH]c2c(-c3ccccc3)c(-c3ccccc3)nn12 [Compound 169, 2,3-diphenyl-5-(pyrimidin-4-ylamino)-6-(quinolin-6-yl)pyrazolo[1,5-a]pyrimidin-7(4H)-one]
O=c1c(-c2ccc3ncccc3c2)c(Nc2ccon2)[nH]c2c(-c3ccccc3)c(-c3ccccc3)nn12 [Compound 170, 5-(isoxazol-3-ylamino)-2,3-diphenyl-6-(quinolin-6-yl)pyrazolo[1,5-a]pyrimidin-7(4H)-one]
CCOC(=O)c1nnc(Nc2[nH]c3c(-c4ccccc4)c(-c4ccccc4)nn3c(=O)c2-c2ccc3ncccc3c2)o1 [Compound 171, ethyl 5-((7-oxo-2,3-diphenyl-6-(quinolin-6-yl)-4,7-dihydropyrazolo[1,5-a]pyrimidin-5-yl)amino)-1,3,4-oxadiazole-2-carboxylate]
CC(=O)Nc1[nH]c2c(-c3ccccc3)c(-c3ccccc3)nn2c(=O)c1-c1ccc2ncccc2c1 [Compound 172, N-(7-oxo-2,3-diphenyl-6-(quinolin-6-yl)-4,7-dihydropyrazolo[1,5-a]pyrimidin-5-yl)acetamide]
O=C(CO)Nc1[nH]c2c(-c3ccccc3)c(-c3ccccc3)nn2c(=O)c1-c1ccc2ncccc2c1 [Compound 173, 2-hydroxy-N-(7-oxo-2,3-diphenyl-6-(quinolin-6-yl)-4,7-dihydropyrazolo[1,5-a]pyrimidin-5-yl)acetamide]
O=c1c(-c2ccc3ncccc3c2)c(Nc2ccccn2)[nH]c2c(C3=CCCCC3)c(-c3ccccc3)nn12 [Compound 174, 3-cyclohexenyl-2-phenyl-5-(pyridin-2-ylamino)-6-(quinolin-6-yl)pyrazolo[1,5-a]pyrimidin-7(4H)-one]
O=c1c(-c2ccc3ncccc3c2)c(Nc2cnccn2)[nH]c2c(C3=CCCCC3)c(-c3ccccc3)nn12 [Compound 175, 3-cyclohexenyl-2-phenyl-5-(pyrazin-2-ylamino)-6-(quinolin-6-yl)pyrazolo[1,5-a]pyrimidin-7(4H)-one]
O=c1c(-c2ccc3ncccc3c2)c(Nc2ccon2)[nH]c2c(C3=CCCCC3)c(-c3ccccc3)nn12 [Compound 176, 3-cyclohexenyl-5-(isoxazol-3-ylamino)-2-phenyl-6-(quinolin-6-yl)pyrazolo[1,5-a]pyrimidin-7(4H)-one]
O=c1c(-c2ccc3nccnc3c2)c(Nc2ccon2)[nH]c2c(C3=CCCCC3)c(-c3ccccc3)nn12 [Compound 177, 3-(cyclohex-1-en-1-yl)-5-(isoxazol-3-ylamino)-2-phenyl-6-(quinoxalin-6-yl)pyrazolo[1,5-a]pyrimidin-7(4H)-one]
COc1ccc(-c2c(Nc3ccccn3)[nH]c3c(-c4cccc(Cl)c4)c(-c4ccccc4)nn3c2=O)cc1 [Compound 178, 3-(3-chlorophenyl)-6-(4-methoxyphenyl)-2-phenyl-5-(pyridin-2-ylamino)pyrazolo[1,5-a]pyrimidin-7(4H)-one]
COc1ccc(-c2c(Nc3ccccn3)[nH]c3c(-c4ccccc4F)c(-c4ccccc4)nn3c2=O)cc1 [Compound 179, 3-(2-fluorophenyl)-6-(4-methoxyphenyl)-2-phenyl-5-(pyridin-2-ylamino)pyrazolo[1,5-a]pyrimidin-7(4H)-one]
COc1ccc(-c2c(Nc3ccccn3)[nH]c3c(-c4ccccc4)c(-c4ccccn4)nn3c2=O)cc1 [Compound 180, 6-(4-methoxyphenyl)-3-phenyl-2-(pyridin-2-yl)-5-(pyridin-2-ylamino)pyrazolo[1,5-a]pyrimidin-7(4H)-one]
COc1ccc(-c2c(Nc3ccccn3)[nH]c3c(N4CCCCC4)c(-c4ccccc4)nn3c2=O)cc1 [Compound 181, 6-(4-methoxyphenyl)-2-phenyl-3-(piperidin-1-yl)-5-(pyridin-2-ylamino)pyrazolo[1,5-a]pyrimidin-7(4H)-one]
COc1ccc(-c2c(Nc3cc[nH]n3)[nH]c3c(-c4ccccc4)c(-c4ccccc4)nn3c2=O)cc1 [Compound 182, 5-((1H-pyrazol-3-yl)amino)-6-(4-methoxyphenyl)-2,3-diphenylpyrazolo[1,5-a]pyrimidin-7(4H)-one]
COc1ccc(-c2c(Nc3cc(OC)[nH]n3)[nH]c3c(-c4ccccc4)c(-c4ccccc4)nn3c2=O)cc1 [Compound 183, 5-((5-methoxy-1H-pyrazol-3-yl)amino)-6-(4-methoxyphenyl)-2,3-diphenylpyrazolo[1,5-a]pyrimidin-7(4H)-one]
COc1ccc(-c2c(Nc3c[nH]cn3)[nH]c3c(-c4ccccc4)c(-c4ccccc4)nn3c2=O)cc1 [Compound 184, 5-((1H-imidazol-4-yl)amino)-6-(4-methoxyphenyl)-2,3-diphenylpyrazolo[1,5-a]pyrimidin-7(4H)-one]
COc1ccc(-c2c(Nc3cn[nH]n3)[nH]c3c(-c4ccccc4)c(-c4ccccc4)nn3c2=O)cc1 [Compound 185, 5-((2H-1,2,3-triazol-4-yl)amino)-6-(4-methoxyphenyl)-2,3-diphenylpyrazolo[1,5-a]pyrimidin-7(4H)-one]
COc1ccc(-c2c(Nc3cc(N)[nH]n3)[nH]c3c(-c4ccccc4)c(-c4ccccc4)nn3c2=O)cc1 [Compound 186, 5-((5-amino-1H-pyrazol-3-yl)amino)-6-(4-methoxyphenyl)-2,3-diphenylpyrazolo[1,5-a]pyrimidin-7(4H)-one]
